Here are results for five molecules from paper PMC9000592 (Molecules, 2022).

Molecules are shown by their SMILES. Like-named read-outs stand apart in the source and are kept apart here.

For data set [1] the following is noted: cited from earlier work.
The target of data set [2] is T1, CYP3A2 (Rattus norvegicus, UniProt P05183).
T1 sequence (P05183 1-504): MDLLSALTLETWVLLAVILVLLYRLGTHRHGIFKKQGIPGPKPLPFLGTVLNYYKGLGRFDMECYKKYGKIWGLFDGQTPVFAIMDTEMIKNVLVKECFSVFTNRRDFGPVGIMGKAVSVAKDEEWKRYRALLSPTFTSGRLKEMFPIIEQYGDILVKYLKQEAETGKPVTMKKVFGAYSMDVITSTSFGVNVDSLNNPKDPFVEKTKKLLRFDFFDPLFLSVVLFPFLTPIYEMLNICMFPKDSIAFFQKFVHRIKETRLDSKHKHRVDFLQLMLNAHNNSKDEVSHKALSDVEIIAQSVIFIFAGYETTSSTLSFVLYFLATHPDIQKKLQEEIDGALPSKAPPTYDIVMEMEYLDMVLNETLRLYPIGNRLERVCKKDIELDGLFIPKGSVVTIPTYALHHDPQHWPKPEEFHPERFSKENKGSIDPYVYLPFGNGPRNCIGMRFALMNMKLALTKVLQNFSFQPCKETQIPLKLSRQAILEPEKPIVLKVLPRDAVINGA
Put plainly: Inhibition of CYP3A2-mediated dexamethasone 6β-hydroxylation in rat liver microsomes (HPLC). Particulars: for inhibition mode of CYP3A2 enzyme activity: Lineweaver–Burk plot, rat liver microsomes; for Vmax for 6β-hydroxylase / Clint (hepatic intrinsic clearance) for 6β-hydroxylase: dexamethasone substrate. As to the method: The rates of 6β-hydroxydexamethasone formation were determined using High-Performance Liquid Chromatography (HPLC) technique.
The percentage of organic solvent in the assay was not more than 1% v/v.
The quenched reaction masses were transferred to the new vials and substrate and metabolite were double extracted with ethyl acetate (3 mL) and diethyl ether (3 mL), respectively. The organic extracts were evaporated to dryness. The mobile phase (70% acetonitrile and 30% water, v/v) was used to dissolve the residues. Then, 10 µL of the solution was injected for HPLC analysis.
Analysis of variance (ANOVA) test was also performed (at 0.05 significance level).
Schwarz criterion (SC) and Akaike information criterion (AIC) were acquired from nonlinear regression analysis. IC50 values were calculated by nonlinear regression analysis and GraphPad Prism software was used for this purpose.
The Lineweaver–Burk plot was used to assess the inhibition parameters such as Km, Vmax, and Clint.
(Liver microsomes are vesicles of endoplasmic reticulum, rich in cytochrome P450 enzymes.)

Data set [3] has as its target fatty acid amide hydrolase. The note with it: hydrolysis of arachidonoylethanolamide; cited from earlier work.
A further data set concerns cytokine expression. Further details: method as in PMID 31286365. Particulars: in vitro; cited from earlier work.
Another data set has as its system trimethadione metabolism. The note with it: short-term administration in rats; cited from earlier work.
The next data set relates to ATPase. Set-up: method as in PMID 2992525. The note with it: in vitro, up to 60 min at pH 6.1 or pH 7.4; cited from earlier work.
Details of data set [4]: method as in PMID 29752643. The note with it: several daily oral doses of omeprazole 40 mg; cited from earlier work.
Data set [5] relates to bufuralol 1′-hydroxylation. Further details: method as in PMID 15258107. The note with it: cited from earlier work.
The next data set has as its system CYP3A4. Particulars: cited from earlier work.
The target of data set [6] is T1, CYP3A2. Set-up: The pooled liver microsomes from male rats (Sprague Dawley) were purchased from Merck; tissue Merck; host or cells: pooled liver microsomes from male Sprague Dawley rats. Particulars: previous study; cited from earlier work.
The test system of a further data set is COVID-19. Further details: method as in PMID 33732750. Particulars: cited from earlier work.
Where [7] appears, read: male, Sprague Dawley, rat, microsomes, pH 7.4.

With `CC(C)Cc1ccc(C(C)C(=O)O)cc1` (stereo not drawn) [Ibuprofen, ibuprofen], in [1], the “amounts found in plasma” value is 49 to 242 µM. The Cmax in data set [1] (read-out: peak plasma concentrations (Cmax), after two single doses of 200 mg from two different ibuprofen preparations) is 110 to 150 µM. Moreover, the “inhibition mode of CYP3A2 enzyme activity” value (“inhibition mode” below) on CYP3A2 [2] is “non-competitive”. Moreover, at CYP3A2 [2] (inhibitor 50 µM), the “Vmax for 6β-hydroxylase” value is 0.0116 ± 0.608 × 10^−3 µM^−1∙min^−1. Also, the “Vmax for 6β-hydroxylase” value at CYP3A2 [2] (inhibitor 100 µM) is given as 0.0099 ± 0.040 × 10^−3 µM^−1∙min^−1. Besides, the “Vmax for 6β-hydroxylase” value on CYP3A2 [2] (inhibitor 200 µM) is listed as 0.0092 ± 0.100 × 10^−3 µM^−1∙min^−1. On CYP3A2 [2] (setting [7]), the inhibition (commonly the change of the read-out against control, counted positive when it falls) at 40 min, 50 µM is 23 ± 4.34%; the inhibition at 40 min, 100 µM came to 34.73 ± 0.336%; the inhibition at 40 min, 200 µM was determined as 38.9 ± 0.476%. In addition, the IC50 – broadly, the concentration that inhibits the measured activity by half – in [3] is 270 µM. Moreover, the “effect on cytokine expression” value with cytokine expression is “no inhibitory effect”. Besides, the “effect on trimethadione metabolism” value with trimethadione metabolism is listed as “did not affect”.
Consider `COc1ccc2[nH]c([S+]([O-])Cc3ncc(C)c(OC)c3C)nc2c1` (stereo not drawn) [Omeprazole, omeprazole], for which, in the data set with ATPase, the “inhibition of the ATPase activity” value is “no substantial inhibition”. Further, the “effect on the pharmacokinetics of roxadustat” value in data set [4] was “no substantial effect”. Also, the therapeutic plasma concentration in [1] (no reference given) is 1.1 to 2.0 µM. Besides, the Cmax in data set [1] (several daily oral doses of 40 mg) is 1207 ng/mL. For the same molecule, the IC50 in [5] was more than 200 µM. Besides, on CYP3A2 [2], inhibition was half-maximal at 78.35 ± 0.46 µM (IC50); the Ki (in general, a measure of affinity in units of concentration, obtained from inhibition or displacement) was found to be 39.18 ± 0.23 µM; the “inhibition mode” value is listed as “uncompetitive”; the “inhibition of CYP3A2 at concentrations lower than 30 µM” value is “No inhibition”. Moreover, at CYP3A2 [2] (inhibitor 30 µM), the “Clint (hepatic intrinsic clearance) for 6β-hydroxylase” value (shortened to “Clint (hepatic intrinsic clearance)”) was 0.0009 ± 0.091 × 10^−3 µM^−2∙min^−1 and the “Vmax for 6β-hydroxylase” value is recorded as 0.0080 ± 0.346 × 10^−3 µM^−1∙min^−1. Moreover, on CYP3A2 [2] (inhibitor 50 µM), the “Clint (hepatic intrinsic clearance)” value is reported as 0.0010 ± 0.093 × 10^−3 µM^−2∙min^−1 and the “Vmax for 6β-hydroxylase” value was 0.0062 ± 0.473 × 10^−3 µM^−1∙min^−1. In addition, at CYP3A2 [2] (inhibitor 100 µM), the “Clint (hepatic intrinsic clearance)” value is reported as 0.0011 ± 0.066 × 10^−3 µM^−2∙min^−1 and the “Vmax for 6β-hydroxylase” value was 0.0042 ± 0.058 × 10^−3 µM^−1∙min^−1.
With `CCC(CC)COC(=O)[C@H](C)N[P@](=O)(OC[C@H]1O[C@@](C#N)(c2ccc3c(N)ncnn23)[C@H](O)[C@@H]1O)Oc1ccccc1` [Remdesivir, remdesivir], the plasma concentration range in data set [1] (after a single dose of 3–225 mg) is 0.1 to 7.3 µM. At CYP3A2 [2], the IC50 stood at 45.007 ± 0.016 µM, the affinity corresponds to a Ki of 22.504 ± 0.008 µM, the “inhibition mode” value was “mixed” and the “inhibition of CYP3A2 at concentrations lower than 30 µM” value is given as “No inhibition”. Also, on CYP3A2 [2] (inhibitor 30 µM), the “Clint (hepatic intrinsic clearance)” value is given as 0.0006 ± 0.011 × 10^−3 µM^−2∙min^−1 and the “Vmax for 6β-hydroxylase” value is 0.0122 ± 0.306 × 10^−3 µM^−1∙min^−1. At CYP3A2 [2] (inhibitor 50 µM), the “Clint (hepatic intrinsic clearance)” value is on record as 0.0006 ± 0.018 × 10^−3 µM^−2∙min^−1 and the “Vmax for 6β-hydroxylase” value was 0.0146 ± 0.586 × 10^−3 µM^−1∙min^−1. Further, at CYP3A2 [2] (inhibitor 100 µM), the “Clint (hepatic intrinsic clearance)” value was 0.0010 ± 0.025 × 10^−3 µM^−2∙min^−1 and the “Vmax for 6β-hydroxylase” value is given as 0.0132 ± 0.153 × 10^−3 µM^−1∙min^−1. Besides, the “inhibition of CYP3A4” value in the data set on CYP3A4 was “weak inhibitor”.
Regarding `CC(=O)Oc1ccccc1C(=O)O` [aspirin], on CYP3A2 [6], the “inhibition of CYP3A2 isoenzyme activity” value is recorded as “weak competitive inhibition”.
Consider `C[C@@H]1C[C@H]2[C@@H]3CCC4=CC(=O)C=C[C@]4(C)[C@@]3(F)[C@@H](O)C[C@]2(C)[C@@]1(O)C(=O)CO` [dexamethasone], for which the results for the “reduction of death rate” value with COVID-19 (nonventilated patients with supplemental oxygen) and with COVID-19 (ventilated intensive care unit (ICU) patients) were 20% and 35%, respectively.
